Data published in ChEMBL document CHEMBL5352404, “Synthesis and evaluation of novel furanones as biofilm inhibitors in opportunistic human pathogens” (Eur J Med Chem, 2022).
Active and inactive are the calls of the source. No cut-off for these calls is given here.

Experiments:
[1] = system: Stenotrophomonas maltophilia; assay: Inhibition of biofilm formation in Stenotrophomonas maltophilia K279a at 50 uM incubated for 24 hrs by crystal violet staining based analysis; type: functional, organism-based
Pseudomonas aeruginosa [2] = assay: Antibacterial activity against eYFP labeled Pseudomonas aeruginosa PAO1 assessed as inhibition of bacterial growth at 50 uM incubated for 20 hrs by broth microdilution method relative to control; type: functional; design: scale not given: the % may be the effect or the level left
[3] = system: Stenotrophomonas maltophilia; assay: Antibacterial activity against Stenotrophomonas maltophilia K279a assessed as bacterial growth inhibition at 50 uM incubated for 20 hrs by broth microdilution method; type: functional, organism-based
Pseudomonas aeruginosa [4] = assay: Antibacterial activity against Pseudomonas aeruginosa PAR7244 assessed as bacterial growth inhibition at 50 uM incubated for 20 hrs by broth microdilution method; type: functional, organism-based
[5] = Toxicity in Galleria mellonella larvae assessed as reduction in animal survival at 100 uM
Candida albicans [6] = assay: Antibiofilm activity against Candida albicans M2396 at 50 uM incubated for 24 hrs by confocal laser-scanning microscopy; type: functional, organism-based
Pseudomonas aeruginosa [7] = assay: Inhibition of biofilm formation in eYFP labeled Pseudomonas aeruginosa PAO1 at 50 uM incubated for 24 hrs by crystal violet staining based analysis relative to control; type: functional
[8] = Toxicity in Galleria mellonella larvae assessed as signs of melanization at 100 uM
Candida albicans [9] = assay: Inhibition of biofilm formation in RFP-expressing Candida albicans M2396 at 50 uM incubated for 24 hrs by crystal violet staining based analysis relative to control; type: functional
HK-2 = assay: Cytotoxicity against human HK-2 cells assessed as reduction in cell survival at 50 uM incubated for 24 to 48 hrs by MTT assay; type: toxicity, cell-based; conditions: hk-2, 50 µM, time 24-48 hrs
Salmonella typhimurium [10] = assay: Antibacterial activity against Salmonella enterica subsp. enterica serovar Typhimurium assessed as bacterial growth inhibition at 50 uM incubated for 20 hrs by broth microdilution method; type: functional, organism-based
Staphylococcus aureus = assay: Inhibition of biofilm formation in Staphylococcus aureus Newman ATCC 25904 at 50 uM incubated for 24 hrs by crystal violet staining based assay relative to control; type: functional
Salmonella typhimurium [11] = assay: Antibiofilm activity against Salmonella enterica subsp. enterica serovar Typhimurium assessed as reduction in biofilm formation at 50 uM incubated for 24 hrs by crystal violet staining based assay relative to control; type: functional; design: scale not given: the % may be the effect or the level left
Candida albicans [12] = assay: Inhibition of biofilm formation in developmental phase of Candida albicans M2396 at 50 uM incubated for 24 hrs by crystal violet staining based analysis relative to control; type: functional
Escherichia coli [13] = assay: Antibacterial activity against Escherichia coli ATCC 9637 assessed as bacterial growth inhibition at 50 uM incubated for 20 hrs by broth microdilution method relative to control; type: functional; design: scale not given: the % may be the effect or the level left
Escherichia coli [14] = assay: Antibiofilm activity against Escherichia coli ATCC 9637 assessed as reduction in biofilm formation at 50 uM incubated for 24 hrs by crystal violet staining based assay relative to control; type: functional; design: scale not given: the % may be the effect or the level left
Candida albicans [15] = assay: Inhibition of biofilm formation in Candida albicans M2396 at 50 uM incubated for 24 hrs by crystal violet staining based analysis; type: functional, organism-based
Candida albicans [16] = assay: Inhibition of biofilm formation in developmental phase of Candida albicans M2396 at 50 uM incubated for 24 hrs by crystal violet staining based analysis; type: functional, organism-based
Candida albicans [17] = assay: Antibiofilm activity against Candida albicans M2396/Pseudomonas aeruginosa PA01 dual-species at 50 uM incubated for 24 hrs by confocal laser-scanning microscopy; type: functional, organism-based
Escherichia coli [18] = assay: Antibiofilm activity against Escherichia coli ATCC 9637 assessed as reduction in biofilm formation at 50 uM incubated for 24 hrs by crystal violet staining based assay; type: functional, organism-based
Candida albicans [19] = assay: Antifungal activity against RFP-expressing Candida albicans M2396 assessed as fungal growth inhibition at 50 uM incubated for 20 hrs by microplate reader analysis; type: functional, organism-based

Row | Structure (SMILES) | inhibition [1] | Activity (Pseudomonas aeruginosa [2]) | Activity [3] | Activity (Pseudomonas aeruginosa [4]) | other results
1 | O=C1C=C/C(=C(/Cl)c2ccccc2)O1 | inactive | <=5% | inactive | inactive | –
2 | COc1ccc(/C(Br)=C2\C=CC(=O)O2)cc1 | inactive | <=5% | inactive | inactive | –
3 | COc1ccc(C(=C2C=C(Br)C(=O)O2)c2ccc(OC)cc2)cc1 | inactive | <=5% | inactive | inactive | –
4 | O=C1C=CC(=C(c2ccc([N+](=O)[O-])cc2)c2ccc([N+](=O)[O-])cc2)O1 | inactive | <=5% | inactive | inactive | –
5 | O=C1C=C(CBr)C(=C(Br)Br)O1 | inactive | <=5% | inactive | inactive | Activity [5]: Non-Toxic; Activity (Candida albicans [6]): Active; inhibition at 50 µM (Pseudomonas aeruginosa [7]): 60%; Activity [8]: Non-Toxic; inhibition at 50 µM (Candida albicans [9]): 51%; Activity (HK-2): Toxic; Activity (Salmonella typhimurium [10]): Active; inhibition at 50 µM (Staphylococcus aureus): 71%; Activity (Salmonella typhimurium [11]): 72%
6 | O=C1C=CC(=C(c2cccs2)c2cccs2)O1 | inactive | <=5% | inactive | inactive | –
7 | O=C1C=CC(=C(c2ccc(C(F)(F)F)cc2)c2ccc(C(F)(F)F)cc2)O1 | inactive | <=5% | inactive | inactive | –
8 | O=C1C=C(CBr)C(=O)O1 | inactive | <=5% | inactive | inactive | –
9 | O=C1C=C/C(=C(/Br)c2ccc([N+](=O)[O-])cc2)O1 | inactive | <=5% | inactive | inactive | –
10 | O=C1C=CC(=C(c2ccc(O)cc2)c2ccc(O)cc2)O1 | inactive | <=5% | inactive | inactive | inhibition at 50 µM (Staphylococcus aureus): 52%
11 | COc1ccc(C(=C2C=CC(=O)O2)c2ccc(OC)cc2)cc1 | inactive | <=5% | inactive | inactive | inhibition at 50 µM (Candida albicans [12]): 75%; inhibition at 50 µM (Candida albicans [9]): 61%; inhibition at 50 µM (Staphylococcus aureus): 44%
12 | O=C1C=C/C(=C(/Br)c2ccccc2)O1 | inactive | <=5% | inactive | inactive | –
13 | COc1ccc(/C(Cl)=C2\C=CC(=O)O2)cc1 | inactive | <=5% | inactive | inactive | –
14 | COc1ccc(C#CC(C#Cc2ccc(OC)cc2)=C2C=CC(=O)O2)cc1 | inactive | <=5% | inactive | inactive | Activity (Escherichia coli [13]): 8%; Activity (Escherichia coli [14]): 31%; inhibition at 50 µM (Staphylococcus aureus): 36%
15 | O=C1C=CC(=C(Br)Br)O1 | inactive | <=5% | inactive | inactive | inhibition (Candida albicans [15]): Active; inhibition (Candida albicans [16]): Active; Activity (Candida albicans [6]): Active; Activity (Candida albicans [17]): Active; Activity (Escherichia coli [18]): inactive; Activity (Salmonella typhimurium [10]): Active; Activity (Candida albicans [19]): Active; Activity (Salmonella typhimurium [11]): 67%
16 | O=C1C=CC(=C(Cl)Cl)O1 | inactive | <=5% | inactive | inactive | Activity [5]: Non-Toxic; inhibition at 50 µM (Pseudomonas aeruginosa [7]): 52%; Activity [8]: Non-Toxic; inhibition at 50 µM (Candida albicans [9]): 21%
17 | O=C1C=CC(=C(c2ccc(F)cc2)c2ccc(F)cc2)O1 | inactive | <=5% | inactive | inactive | –
18 | O=C1C=C/C(=C(/Br)c2ccc(C(F)(F)F)cc2)O1 | inactive | <=5% | inactive | inactive | inhibition at 50 µM (Candida albicans [12]): 85%; inhibition at 50 µM (Candida albicans [9]): 75%
19 | O=C1C=C/C(=C(/Br)c2cccc([N+](=O)[O-])c2)O1 | inactive | <=5% | inactive | inactive | –
20 | O=C1OC(=C(c2ccc(C(F)(F)F)cc2)c2ccc(C(F)(F)F)cc2)C=C1Br | inactive | <=5% | inactive | inactive | –
21 | COc1cccc(/C(Br)=C2\C=CC(=O)O2)c1 | inactive | <=5% | inactive | inactive | –
22 | O=C1C=C/C(=C(/Br)c2ccc(F)cc2)O1 | inactive | <=5% | inactive | inactive | –
23 | COc1ccc(C(=C2C=C(Br)C(=O)O2)c2ccc(OC)c(Br)c2)cc1Br | inactive | <=5% | inactive | inactive | Activity (Escherichia coli [14]): 15%
24 | COc1ccccc1/C(Br)=C1\C=CC(=O)O1 | inactive | <=5% | inactive | inactive | –
25 | O=C1C=CC(=C(c2cccc([N+](=O)[O-])c2)c2cccc([N+](=O)[O-])c2)O1 | inactive | <=5% | inactive | inactive | –
26 | O=C1C=CC(=C(c2ccccc2)c2ccccc2)O1 | inactive | <=5% | inactive | inactive | –
27 | COc1ccccc1C(=C1C=CC(=O)O1)c1ccccc1OC | inactive | <=5% | inactive | inactive | inhibition at 50 µM (Pseudomonas aeruginosa [7]): 41%; inhibition at 50 µM (Staphylococcus aureus): 7%
28 | O=C1OC(=C(c2ccccc2)c2ccccc2)C=C1Br | inactive | <=5% | inactive | inactive | –
